{
  "source": "patent US5486532A",
  "about": "“Benzospiroalkenes” (Adir et Compagnie, priority 1993, dated 1996)",
  "key": {"[1]": {"test_system": "loss of the righting reflex in rats", "test": "Test of loss of the righting reflex in rats, induction (agonistic effect)", "format": "in vivo, male Wistar rats", "details": "for ED50: Rattus norvegicus, sc, 0.5 h, read-out: Induction of the loss of righting reflex ED50; for induction of a loss of the reorienting reflex (in words): rats", "protocol": "(§1) Animals and environment The animals used are male Wistar rats (IFFA CREDO). They weigh between 200 and 250 g at the time of the experiment. The rats live in an animal house, in cages, four to a cage, with free access to food and drinking water, for one week before being studied. 24 hours before the experiment, the rats are deprived of food. The rats are transferred into the laboratory a few hours before the experiment. The animal house and the laboratory are climatically controlled at a temperature of 21 1° C. and a hygrometry of 55 5%. The lighting cycle is 12 h/12 h with the light switched on from 7.0 a.m. to 7.0 p.m. The rats are only experimented on once.\n(§2) The compounds are injected subcutaneously into the rats which are placed in individual cages. 30 minutes after the injection the effect of these products on the fighting reflex is observed and a score is attributed. Immediately after, the rats receive an intraperitoneal injection of xylazine at a dose of 40 mg/kg. 30 minutes after the injection of xylazine (=60 minutes after the injection of the compounds to be tested), a new righting reflex score is attributed. In order to evaluate the righting reflex, the rats are placed gently on their backs and then released. A score of 0 is attributed to an immediate and complete righting, a score of 1 to a righting without recovery of a normal position, a score of 2 to a righting attempt but in which the rat remains stretched out on its back and a score of 3 to a complete loss of the reorienting reflex.\n(§3) In order to evaluate the effect of the compounds tested on the loss of the righting reflex, a score of 1 or more is considered as an agonistic effect. The percentage of animals which have a score of 1 or more is calculated per dose, as is the ED50 (=dose at which 50% of the animals show an agonistic effect).\n(§4) The products are dissolved in distilled water, or distilled water with a few drops of lactic acid in the case of solubilization difficulties. The pH of the solutions is then brought to 5 using sodium hydroxide solution. All the products are administered in a volume of 10 ml/kg."}, "[2]": {"test_system": "loss of righting reflex induced by xylazine in rats", "test": "Antagonism of the loss of righting reflex induced by xylazine in rats", "format": "in vivo, male Wistar rats", "details": "Rattus norvegicus, sc, 1 h, read-out: Antagonism of the loss of righting reflex induced by xylazine ED50", "protocol": "as §1, §2\nas §3, with “fighting reflex induced by xylazine,” for “righting reflex,”, “2” for “1”, “less” for “more”, “antagonistic” for “agonistic”, “effect). The ED50 are calculated according to Litchfield and Wilcoxon.” for “effect).”\nas §4"}, "[3]": {"test_system": "synthetic activity of noradrenaline in rat hippocampus", "test": "Effect of α2-adrenergic ligands on the synthetic activity of noradrenaline in rat hippocampus (L-DOPA accumulation)", "format": "in vivo, male Wistar rats", "details": "60 minutes, n = 4", "protocol": "200-220 g male Wistar rats Iffa Credo, Illskischen, France) are individually installed in cages with free access to food and drinking water. The laboratory temperature is 21 1° C. and the percent humidity is 60 5%. The day/night cycle is 12 hours (light switched on in the morning at 7.30).\nThe effects of the molecules on the rate of regeneration of noradrenaline is determined 60 minutes after their administration via the subcutaneous route. […] The animals are then decapitated, their brain is removed and the hippocampus is dissected. The hippocampus is subsequently homogenized in 500 1 of 0.1M HClO4 containing 0.5% of Na2 S2 O5 and 0.5% of disodium EDTA and centrifuged at 15000 g for 15 minutes at 4° C. In order to measure the amounts of L-dihydroxyphenylalanine (L-DOPA), the precursor of noradrenaline, present, the supernatants are diluted 20 times in the chromatography mobile phase and 100 1 are analyzed by high performance liquid chromatography with electrochemical detection (Waters M460 detector, potential of the working electrode:850 mV). The column (Hypersil ODS 5 m, C18, 150 4.6 mm, Spectra Physics) is thermostatted at 25° C. […] The flow rate is 1 ml/min. The amounts of L-DOPA are determined relative to an external calibration and are compared with the amount of protein present in the hippocampi. The proteins are quantified according to the method of Smith et at. […] The average amount of L-DOPA analyzed in the animals treated by the solvent is considered as the control value (100%). The amounts analyzed in the animals treated by the molecules are then expressed as a percentage relative to this control value.\nStatistics The data obtained for the control animals and the treated animals are compared with a variance analysis (ANOVA), followed by a Dunnett test. The significance limit is set at p<0.05. The data are expressed as a mean standard deviation.\nCompounds The injection are made subcutaneously in a volume of 1.0 ml/kg. The substances are dissolved in sterile water with, if necessary, a few drops of lactic acid and then readjusted to a pH which is as close as possible to neutrality with sodium hydroxide. […] The doses are expressed relative to their weight of free base."}, "dog femoral arteries": {"test_system": "dog femoral arteries", "test": "Contraction of isolated dog femoral arteries", "details": "Canis lupus familiaris", "protocol": "(§5) The technique used is based on that described by Fowler et al. (J. Pharmacol. Exp. Ther., 229, 712-718, 1984). Male or female mongrel dogs of approximately 15-25 kg were used as organ sources. The animals are anesthetized with pentobarbital (30 mg/kg intravenously). The legs are incized and the blood vessels removed. They are placed in Krebs-Ringer liquid (118 mM NaCl; 25 mM NaHCO3; 10 mM Glucose; 4.7 mM KCl; 1.25 mM CaCl2; 1.19 mM MgSO4; 1.14 mM KH2 PO4) at room temperature and under a sparge of carbogen (95% O2, 5% CO2). These blood vessels are then carefully freed of their fat and then cut into rings 2 mm wide and mounted under a base tension of 4 g (femoral arteries) or 1 g (saphena veins) in tanks thermostated at 37° C. containing Krebs-Ringer liquid and constantly sparged with carbogen. A lower hook constitutes the fixed point, whereas the upper hook is connected to an isometric force sensor. The variations in tension are digitized, stored on disk and processed by an information technology system. After mounting, the organs are left to rest for 90 minutes, with rinses being carried out every 30 min. After readjustment of the base tension, a contraction is induced by a single dose of KCl (100 mM). After stabilization, washing and returning to the base line, a contraction is provoqued by a single dose of phenylephrine (submaximal concentration) in order to regulate the following contractions. After washing and returning to the baseline, an effect/concentration curve is produced by addition of cumulative doses of agonist (the space between the doses is a semi-log). This experiment makes it possible to calculate the 50% effective concentration (EC50) in the following way: the tension values are first of all converted to percentages relative to the maximum effect induced by 100 mM of KCl. This EC50 is determined by non-linear regression by the SIMPLEX method (M. S. Caceci, Byte, 340-362, 1984), calculated according to the mass action law model of L. Michaelis and M. L. Menten (Biochem. Zeitschrift, 49, 333-369, 1913).\n(§6) E=(Emax*C^n)(EC^n +C^n) with E=effect; Emax=maximum effect; C=concentration; EC=EC50; n=Hill number\n(§7) The products of the invention contract dog arteries and veins. The maximum for these contractions approaches that obtained with KCl."}, "saphena veins": {"test_system": "saphena veins", "test": "Contraction of isolated dog saphena veins", "details": "Canis lupus familiaris", "protocol": "as §5, §6, §7"}, "[4]": {"details": "s.c., 30 minutes after injection, score of 1 or more"}, "[5]": {"details": "s.c., 60 minutes after injection, xylazine 40 mg/kg i.p., score of 2 or less"}, "[6]": {"details": "30 minutes after xylazine 40 mg/kg i.p., distilled water pretreatment, N=10"}},
  "note": "Where a name gives a salt, the structure may show the parent alone. Read-outs that look alike come from different tables or passages of the source.",
  "data": [
    {"smiles": "NC1=NC2(CCc3cccc(Cl)c3C2)CO1", "note": "(single isomer, unassigned) [Example 13, Spiro[(1-oxa-2-amino-3-azacyclopent-2-ene)-4:2'-(8'-chloro-1',2', 3',4'-tetrahydronaphthalene)]hydrochloride, βisomer]", "values": [
      {"measurement": "ED50", "setting": "[1]; [4]", "value": 0.15, "unit": "mg/kg"},
      {"measurement": "induction of a loss of the reorienting reflex (in words)", "setting": "[1]", "value": "behave as agonists by inducing a loss of the reorienting reflex"},
      {"measurement": "ED50", "setting": "[2]; [5]", "value": "> 0.63", "unit": "mg/kg"}
    ]},
    {"smiles": "Cc1cccc(C)c1N=C1NCCCS1", "note": "[XYLAZINE, xylazine]", "values": [
      {"measurement": "control rats that had lost the righting reflex (in words)", "setting": "[1]; [6]", "value": "all the control rats (N=10) had lost the fighting reflex"},
      {"measurement": "righting reflex score, mean±SD", "setting": "[1]; [6]", "value": "3±0"},
      {"measurement": "ED50", "setting": "[1]", "value": 6.1, "unit": "mg/kg"},
      {"measurement": "induction of a loss of the reorienting reflex (in words)", "setting": "[1]", "value": "behave as agonists by inducing a loss of the reorienting reflex"}
    ]},
    {"smiles": "Cc1ccc2c(c1C)CC1(CC2)COC(N)=N1", "note": "(stereo not shown) [Example 11, Spiro[(1-oxa-2-amino-3-azacyciopent-2-ene)-4:2'-(7-8'-dimethyl-1', 2',3',4'-tetrahydronaphthalene)]hydrochloride]", "values": [
      {"measurement": "ED50", "setting": "[1]; [4]", "value": 1.14, "unit": "mg/kg"},
      {"measurement": "induction of a loss of the reorienting reflex (in words)", "setting": "[1]", "value": "behave as agonists by inducing a loss of the reorienting reflex"},
      {"measurement": "ED50", "setting": "[2]; [5]", "value": "> 2.5", "unit": "mg/kg"}
    ]},
    {"smiles": "Brc1c(NC2=NCCN2)ccc2nccnc12", "note": "[UK 14,304, reference compound]", "values": [
      {"measurement": "Accumulation of L-DOPA", "setting": "[3]; dose 0.01 mg/kg s.c.", "value": "98 ± 13", "unit": "Control percentages"},
      {"measurement": "Accumulation of L-DOPA", "setting": "[3]; dose 0.04 mg/kg s.c.", "value": "70 ± 2", "unit": "Control percentages"},
      {"measurement": "Accumulation of L-DOPA", "setting": "[3]; dose 0.16 mg/kg s.c.", "value": "40 ± 3", "unit": "Control percentages"},
      {"measurement": "Accumulation of L-DOPA", "setting": "[3]; dose 0.63 mg/kg s.c.", "value": "48 ± 7", "unit": "Control percentages"},
      {"measurement": "ED50", "setting": "[1]", "value": 0.24, "unit": "mg/kg"},
      {"measurement": "induction of a loss of the reorienting reflex (in words)", "setting": "[1]", "value": "behave as agonists by inducing a loss of the reorienting reflex"},
      {"measurement": "ED50", "setting": "[2]", "value": "> 10", "unit": "mg/kg"}
    ]},
    {"smiles": "c1ccc2c(c1)OCC(C1=NCCN1)O2", "note": "(stereo not shown) [IDAZOXAN, idazoxan]", "values": [
      {"measurement": "ED50", "setting": "[1]; [4]", "value": "> 10", "unit": "mg/kg"},
      {"measurement": "induction of a loss of the reorienting reflex (in words)", "setting": "[1]", "value": "inactiv"},
      {"measurement": "ED50", "setting": "[2]; [5]", "value": 0.24, "unit": "mg/kg"}
    ]},
    {"smiles": "NC1=NC2(CCc3cccc(Cl)c3C2)CO1", "note": "(stereo not shown) [Example 9, Spiro[(1-oxa-2-amino-3-azacyclopent-2-ene)-4:2'-(8'-chloro-1', 2',3',4'-tetrahydronaphthalene)]hydrochloride]", "values": [
      {"measurement": "Accumulation of L-DOPA", "setting": "[3]; dose 0.01 mg/kg s.c.", "value": "51 ± 7", "unit": "Control percentages"},
      {"measurement": "Accumulation of L-DOPA", "setting": "[3]; dose 0.04 mg/kg s.c.", "value": "50 ± 7", "unit": "Control percentages"},
      {"measurement": "Accumulation of L-DOPA", "setting": "[3]; dose 0.16 mg/kg s.c.", "value": "44 ± 2", "unit": "Control percentages"},
      {"measurement": "Accumulation of L-DOPA", "setting": "[3]; dose 0.63 mg/kg s.c.", "value": "34 ± 2", "unit": "Control percentages"},
      {"measurement": "ED50", "setting": "[1]; [4]", "value": 0.17, "unit": "mg/kg"},
      {"measurement": "induction of a loss of the reorienting reflex (in words)", "setting": "[1]", "value": "behave as agonists by inducing a loss of the reorienting reflex"},
      {"measurement": "ED50", "setting": "[2]; [5]", "value": "> 0.63", "unit": "mg/kg"}
    ]},
    {"smiles": "COc1cccc2c1CC1(CC2)CNC=N1", "note": "(stereo not shown) [Example 3, Spiro[(1,3-diazacyclopent-1-ene)-5:2'-(8'-methoxy-1',2',3', 4'-tetrahydronaphthalene)]fumarate]", "values": [
      {"measurement": "EC50", "setting": "dog femoral arteries; dog femoral artery rings, cumulative doses", "value": 3000, "unit": "nM"},
      {"measurement": "Emax", "setting": "dog femoral arteries; maximum contraction relative to 100 mM KCl, dog femoral artery, read-out: ARTERY Max", "value": 94, "unit": "%"},
      {"measurement": "EC50", "setting": "saphena veins; dog saphena vein rings, cumulative doses", "value": 400, "unit": "nM"},
      {"measurement": "Emax", "setting": "saphena veins; maximum contraction relative to 100 mM KCl, dog saphena vein, read-out: VEIN Max", "value": 100, "unit": "%"}
    ]}
  ]
}
